Assay results published in ChEMBL document CHEMBL4507292 (2021).

Experiments:
[1] = target: Serine/threonine-protein kinase 35 (Homo sapiens) (UniProt Q8TDR2); details: Compound concentration 1000.0 nM
[2] = target: Cyclin-dependent kinase 16 (Homo sapiens) (UniProt Q00536); details: Compound concentration 1000.0 nM
[3] = target: Ribosomal protein S6 kinase alpha-4 (Homo sapiens) (UniProt O75676); details: Compound concentration 1000.0 nM
[4] = target: Tyrosine-protein kinase Fyn (Homo sapiens) (UniProt P06241); details: Compound concentration 1000.0 nM
[5] = target: Serine/threonine-protein kinase MARK1 (Homo sapiens) (UniProt Q9P0L2); details: Compound concentration 1000.0 nM
[6] = system: Epidermal growth factor receptor (Homo sapiens), P00533 [UNDEFINED MUTATION]; details: Compound concentration 1000.0 nM
[7] = target: Mitotic checkpoint serine/threonine-protein kinase BUB1 (Homo sapiens) (UniProt O43683); details: Compound concentration 1000.0 nM
[8] = target: Muscle, skeletal receptor tyrosine-protein kinase (Homo sapiens) (UniProt O15146); details: Compound concentration 1000.0 nM
[9] = target: Mitogen-activated protein kinase 8 (Homo sapiens) (UniProt P45983); details: Compound concentration 1000.0 nM
[10] = target: Tyrosine-protein kinase ITK/TSK (Homo sapiens) (UniProt Q08881); details: Compound concentration 1000.0 nM
[11] = target: Dual specificity mitogen-activated protein kinase kinase 6 (Homo sapiens) (UniProt P52564); details: Compound concentration 1000.0 nM
[12] = target: Mitogen-activated protein kinase kinase kinase 2 (Homo sapiens) (UniProt Q9Y2U5); details: Compound concentration 1000.0 nM
[13] = target: Dual specificity mitogen-activated protein kinase kinase 4 (Homo sapiens) (UniProt P45985); details: Compound concentration 1000.0 nM
[14] = target: 5-hydroxytryptamine receptor 2B (Homo sapiens) (UniProt P41595); details: Compound concentration 10.0 uM
[15] = target: Testis-specific serine/threonine-protein kinase 1 (Homo sapiens) (UniProt Q9BXA7); details: Compound concentration 1000.0 nM
[16] = target: Serine/threonine-protein kinase SBK1 (Homo sapiens) (UniProt Q52WX2); details: Compound concentration 1000.0 nM
[17] = target: Tyrosine-protein kinase HCK (Homo sapiens) (UniProt P08631); details: Compound concentration 1000.0 nM
[18] = target: Serine/threonine-protein kinase PAK 6 (Homo sapiens) (UniProt Q9NQU5); details: Compound concentration 1000.0 nM
[19] = target: Receptor-type tyrosine-protein kinase FLT3 (Homo sapiens) (UniProt P36888); details: Compound concentration 1000.0 nM
[20] = target: Atypical kinase COQ8B, mitochondrial (Homo sapiens) (UniProt Q96D53); details: Compound concentration 1000.0 nM
[21] = target: Dual specificity mitogen-activated protein kinase kinase 7 (Homo sapiens) (UniProt O14733); details: Compound concentration 1000.0 nM
[22] = target: Tyrosine-protein kinase Lyn (Homo sapiens) (UniProt P07948); details: Compound concentration 1000.0 nM
[23] = target: Cyclin-dependent kinase-like 5 (Homo sapiens) (UniProt O76039); details: Compound concentration 1000.0 nM
[24] = target: Interferon-induced, double-stranded RNA-activated protein kinase (Homo sapiens) (UniProt P19525); details: Compound concentration 1000.0 nM
[25] = target: Ephrin type-B receptor 3 (Homo sapiens) (UniProt P54753); details: Compound concentration 1000.0 nM
[26] = target: Serine/threonine-protein kinase PLK4 (Homo sapiens) (UniProt O00444); details: Compound concentration 1000.0 nM
[27] = target: Mitogen-activated protein kinase kinase kinase kinase 2 (Homo sapiens) (UniProt Q12851); details: Compound concentration 1000.0 nM
[28] = target: Tyrosine-protein kinase BTK (Homo sapiens) (UniProt Q06187); details: Compound concentration 1000.0 nM
[29] = target: Tyrosine-protein kinase Blk (Homo sapiens) (UniProt P51451); details: Compound concentration 1000.0 nM
[30] = target: Serine/threonine-protein kinase LATS2 (Homo sapiens) (UniProt Q9NRM7); details: Compound concentration 1000.0 nM
[31] = target: Receptor tyrosine-protein kinase erbB-4 (Homo sapiens) (UniProt Q15303); details: Compound concentration 1000.0 nM
[32] = target: Ephrin type-A receptor 6 (Homo sapiens) (UniProt Q9UF33); details: Compound concentration 1000.0 nM
[33] = target: Serine/threonine-protein kinase SIK2 (Homo sapiens) (UniProt Q9H0K1); details: Compound concentration 1000.0 nM
[34] = target: Tyrosine-protein kinase Fer (Homo sapiens) (UniProt P16591); details: Compound concentration 1000.0 nM
[35] = target: Homeodomain-interacting protein kinase 1 (Homo sapiens) (UniProt Q86Z02); details: Compound concentration 1000.0 nM
[36] = target: Sigma non-opioid intracellular receptor 1 (Homo sapiens, UniProt Q99720); details: Compound concentration 10.0 uM
[37] = target: Sigma intracellular receptor 2 (Homo sapiens, UniProt Q5BJF2); experiment: GPCRScan assay: inhibition of Sigma 2; set-up: radioligand conc. used [nm] 5.0, parental cells HEKT
[38] = target: Rho-associated protein kinase 2 (Homo sapiens) (UniProt O75116); details: Compound concentration 1000.0 nM
[39] = target: Discoidin domain-containing receptor 2 (Homo sapiens) (UniProt Q16832); details: Compound concentration 1000.0 nM
[40] = target: Protein-tyrosine kinase 2-beta (Homo sapiens) (UniProt Q14289); details: Compound concentration 1000.0 nM
[41] = target: Casein kinase I isoform epsilon (Homo sapiens) (UniProt P49674); details: Compound concentration 1000.0 nM
[42] = target: Cyclin-dependent kinase 11A (Homo sapiens) (UniProt Q9UQ88); details: Compound concentration 1000.0 nM
[43] = system: Receptor-type tyrosine-protein kinase FLT3 (Homo sapiens), P36888 [D835V]; details: Compound concentration 1000.0 nM
[44] = target: Phosphatidylinositol 4-phosphate 5-kinase type-1 alpha (Homo sapiens) (UniProt Q99755); details: Compound concentration 1000.0 nM
[45] = target: Serine/threonine-protein kinase TAO2 (Homo sapiens) (UniProt Q9UL54); details: Compound concentration 1000.0 nM

Discoidin domain-containing receptor 2 (Homo sapiens), sequence (Q16832 whole entry, the tested form may be a part): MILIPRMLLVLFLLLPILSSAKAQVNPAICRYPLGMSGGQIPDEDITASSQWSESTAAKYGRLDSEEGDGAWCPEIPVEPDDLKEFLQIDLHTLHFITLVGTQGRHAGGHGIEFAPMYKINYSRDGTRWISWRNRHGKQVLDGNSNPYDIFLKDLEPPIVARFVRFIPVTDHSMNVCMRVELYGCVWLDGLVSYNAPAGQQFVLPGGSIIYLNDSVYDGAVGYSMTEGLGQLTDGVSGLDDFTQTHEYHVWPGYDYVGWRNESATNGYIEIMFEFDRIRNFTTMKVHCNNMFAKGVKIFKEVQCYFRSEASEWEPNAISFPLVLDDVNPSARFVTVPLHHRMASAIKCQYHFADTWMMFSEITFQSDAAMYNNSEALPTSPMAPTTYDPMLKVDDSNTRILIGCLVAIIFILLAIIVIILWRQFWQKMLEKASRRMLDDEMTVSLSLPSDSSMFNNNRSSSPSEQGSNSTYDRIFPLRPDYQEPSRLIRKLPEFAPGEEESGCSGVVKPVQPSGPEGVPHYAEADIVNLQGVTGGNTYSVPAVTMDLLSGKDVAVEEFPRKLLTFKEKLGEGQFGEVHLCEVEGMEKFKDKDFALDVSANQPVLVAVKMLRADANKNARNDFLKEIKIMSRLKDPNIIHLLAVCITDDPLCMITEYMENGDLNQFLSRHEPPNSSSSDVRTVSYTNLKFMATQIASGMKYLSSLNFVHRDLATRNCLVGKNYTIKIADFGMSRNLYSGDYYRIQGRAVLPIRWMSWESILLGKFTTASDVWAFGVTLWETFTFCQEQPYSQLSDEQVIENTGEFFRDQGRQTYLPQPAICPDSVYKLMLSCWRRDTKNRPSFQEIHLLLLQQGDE
Sigma intracellular receptor 2, sequence (Q5BJF2 whole entry): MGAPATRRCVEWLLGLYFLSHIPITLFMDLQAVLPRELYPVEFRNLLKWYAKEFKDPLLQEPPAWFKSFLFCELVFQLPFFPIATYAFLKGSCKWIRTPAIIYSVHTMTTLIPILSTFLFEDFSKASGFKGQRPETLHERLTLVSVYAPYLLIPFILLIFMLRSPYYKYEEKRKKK
Interferon-induced, double-stranded RNA-activated protein kinase (Homo sapiens), sequence (P19525 whole entry): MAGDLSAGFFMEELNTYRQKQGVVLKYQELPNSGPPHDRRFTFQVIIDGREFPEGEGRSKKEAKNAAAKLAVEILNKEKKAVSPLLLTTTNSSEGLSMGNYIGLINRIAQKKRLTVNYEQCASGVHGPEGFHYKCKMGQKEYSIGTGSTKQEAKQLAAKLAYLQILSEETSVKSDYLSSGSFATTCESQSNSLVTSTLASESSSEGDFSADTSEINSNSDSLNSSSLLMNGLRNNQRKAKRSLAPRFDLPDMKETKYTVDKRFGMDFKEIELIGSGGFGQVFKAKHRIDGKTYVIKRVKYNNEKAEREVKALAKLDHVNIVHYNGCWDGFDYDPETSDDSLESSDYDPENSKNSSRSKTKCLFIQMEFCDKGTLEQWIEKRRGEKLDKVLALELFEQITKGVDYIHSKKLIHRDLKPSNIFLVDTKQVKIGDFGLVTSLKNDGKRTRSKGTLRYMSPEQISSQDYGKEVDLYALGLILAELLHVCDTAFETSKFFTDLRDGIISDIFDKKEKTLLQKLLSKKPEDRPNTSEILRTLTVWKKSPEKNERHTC
Ribosomal protein S6 kinase alpha-4 (Homo sapiens), sequence (O75676 whole entry, looked up): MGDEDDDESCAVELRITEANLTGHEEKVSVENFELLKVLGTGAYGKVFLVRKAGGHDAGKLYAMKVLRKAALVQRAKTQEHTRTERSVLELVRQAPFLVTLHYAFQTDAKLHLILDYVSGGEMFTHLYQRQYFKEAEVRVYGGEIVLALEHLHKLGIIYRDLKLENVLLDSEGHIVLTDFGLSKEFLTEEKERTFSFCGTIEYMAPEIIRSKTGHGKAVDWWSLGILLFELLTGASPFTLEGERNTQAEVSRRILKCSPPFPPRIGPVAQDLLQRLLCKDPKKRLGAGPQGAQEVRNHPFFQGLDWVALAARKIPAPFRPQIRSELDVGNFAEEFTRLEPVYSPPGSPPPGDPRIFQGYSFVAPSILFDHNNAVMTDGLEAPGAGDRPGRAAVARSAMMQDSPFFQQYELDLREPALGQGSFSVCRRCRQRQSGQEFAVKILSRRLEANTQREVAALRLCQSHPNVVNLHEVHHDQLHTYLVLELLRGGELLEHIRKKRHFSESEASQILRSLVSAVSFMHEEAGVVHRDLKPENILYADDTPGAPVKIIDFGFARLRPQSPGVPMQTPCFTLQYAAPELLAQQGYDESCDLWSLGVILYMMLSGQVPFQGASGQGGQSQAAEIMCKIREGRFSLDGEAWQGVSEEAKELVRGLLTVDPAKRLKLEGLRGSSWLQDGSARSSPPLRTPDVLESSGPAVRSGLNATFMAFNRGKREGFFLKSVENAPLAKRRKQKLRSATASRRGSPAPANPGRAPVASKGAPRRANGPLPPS
Mitogen-activated protein kinase 8 (Homo sapiens), sequence (P45983 whole entry): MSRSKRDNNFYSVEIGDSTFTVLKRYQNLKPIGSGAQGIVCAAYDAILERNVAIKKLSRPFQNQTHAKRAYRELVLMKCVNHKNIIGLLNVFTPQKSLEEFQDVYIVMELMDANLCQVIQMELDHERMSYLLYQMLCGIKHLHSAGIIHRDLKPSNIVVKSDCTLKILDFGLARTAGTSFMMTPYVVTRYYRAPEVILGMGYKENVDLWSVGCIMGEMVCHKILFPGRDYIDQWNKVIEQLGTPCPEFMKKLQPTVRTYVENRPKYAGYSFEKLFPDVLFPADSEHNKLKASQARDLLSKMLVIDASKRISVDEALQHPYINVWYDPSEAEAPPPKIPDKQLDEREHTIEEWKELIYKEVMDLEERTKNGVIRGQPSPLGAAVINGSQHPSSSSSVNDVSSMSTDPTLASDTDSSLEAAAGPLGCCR
Protein-tyrosine kinase 2-beta (Homo sapiens), sequence (Q14289 whole entry, looked up, canonical isoform): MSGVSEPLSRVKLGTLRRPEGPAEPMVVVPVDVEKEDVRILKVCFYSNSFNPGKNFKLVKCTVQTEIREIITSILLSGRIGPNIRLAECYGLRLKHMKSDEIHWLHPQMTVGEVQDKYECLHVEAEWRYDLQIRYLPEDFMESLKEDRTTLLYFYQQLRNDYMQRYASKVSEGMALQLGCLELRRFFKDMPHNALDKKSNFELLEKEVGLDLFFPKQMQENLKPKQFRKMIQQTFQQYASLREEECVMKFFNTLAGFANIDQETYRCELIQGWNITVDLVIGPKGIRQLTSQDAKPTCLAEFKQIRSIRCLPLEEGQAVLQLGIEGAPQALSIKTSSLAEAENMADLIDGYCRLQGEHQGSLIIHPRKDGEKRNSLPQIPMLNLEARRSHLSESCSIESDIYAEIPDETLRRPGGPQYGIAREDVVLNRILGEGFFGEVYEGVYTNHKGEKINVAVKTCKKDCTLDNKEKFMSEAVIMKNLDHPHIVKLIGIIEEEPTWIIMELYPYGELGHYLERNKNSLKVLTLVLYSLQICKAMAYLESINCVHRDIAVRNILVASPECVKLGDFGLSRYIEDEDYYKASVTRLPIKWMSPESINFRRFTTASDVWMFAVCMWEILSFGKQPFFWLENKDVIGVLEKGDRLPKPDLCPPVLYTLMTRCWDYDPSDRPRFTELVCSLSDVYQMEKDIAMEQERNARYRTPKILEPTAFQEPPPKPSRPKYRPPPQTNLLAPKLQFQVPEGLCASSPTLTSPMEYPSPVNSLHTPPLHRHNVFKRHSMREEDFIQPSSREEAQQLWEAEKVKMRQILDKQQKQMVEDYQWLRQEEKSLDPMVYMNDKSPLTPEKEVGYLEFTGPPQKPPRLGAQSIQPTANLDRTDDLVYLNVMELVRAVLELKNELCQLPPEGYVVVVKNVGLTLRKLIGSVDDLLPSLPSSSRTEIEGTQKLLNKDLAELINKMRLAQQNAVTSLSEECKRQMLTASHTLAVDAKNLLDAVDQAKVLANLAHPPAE
Cyclin-dependent kinase-like 5 (Homo sapiens), sequence (O76039 whole entry): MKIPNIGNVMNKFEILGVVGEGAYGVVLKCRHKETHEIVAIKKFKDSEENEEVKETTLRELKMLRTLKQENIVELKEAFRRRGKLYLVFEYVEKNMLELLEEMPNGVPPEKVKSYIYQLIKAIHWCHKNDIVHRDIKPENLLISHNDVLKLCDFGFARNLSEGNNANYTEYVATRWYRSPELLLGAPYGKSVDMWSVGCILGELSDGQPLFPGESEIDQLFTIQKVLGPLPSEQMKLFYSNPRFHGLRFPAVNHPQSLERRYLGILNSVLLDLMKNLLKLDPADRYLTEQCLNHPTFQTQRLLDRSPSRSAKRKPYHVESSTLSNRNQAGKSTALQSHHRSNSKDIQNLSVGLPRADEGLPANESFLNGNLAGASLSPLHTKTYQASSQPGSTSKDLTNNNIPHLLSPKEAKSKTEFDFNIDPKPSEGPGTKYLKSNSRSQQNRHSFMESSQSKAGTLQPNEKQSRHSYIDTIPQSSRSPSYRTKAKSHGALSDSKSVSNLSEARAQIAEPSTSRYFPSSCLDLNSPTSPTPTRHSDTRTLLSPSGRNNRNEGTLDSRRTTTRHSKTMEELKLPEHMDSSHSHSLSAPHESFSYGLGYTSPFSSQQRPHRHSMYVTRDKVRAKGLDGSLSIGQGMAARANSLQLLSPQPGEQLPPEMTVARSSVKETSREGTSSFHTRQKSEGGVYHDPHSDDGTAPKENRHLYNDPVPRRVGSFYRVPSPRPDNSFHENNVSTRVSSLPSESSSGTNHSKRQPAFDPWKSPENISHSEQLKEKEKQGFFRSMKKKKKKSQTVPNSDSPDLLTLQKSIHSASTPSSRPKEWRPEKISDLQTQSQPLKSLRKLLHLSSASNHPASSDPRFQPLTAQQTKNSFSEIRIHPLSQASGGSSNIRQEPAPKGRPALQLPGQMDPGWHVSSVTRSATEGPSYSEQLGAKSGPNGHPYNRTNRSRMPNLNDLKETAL
Sigma non-opioid intracellular receptor 1, sequence (Q99720 whole entry): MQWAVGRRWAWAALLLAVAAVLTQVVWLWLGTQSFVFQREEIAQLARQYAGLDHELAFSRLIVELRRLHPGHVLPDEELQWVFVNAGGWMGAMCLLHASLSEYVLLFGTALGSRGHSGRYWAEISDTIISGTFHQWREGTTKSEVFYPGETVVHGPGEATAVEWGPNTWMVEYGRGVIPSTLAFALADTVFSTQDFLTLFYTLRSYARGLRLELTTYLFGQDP

Cc1c(C(=O)O)cc(-c2ccc(C3CCNCC3)cc2)c2ccc(-c3ccc(C(F)(F)F)cc3)cc12 [PPTN-NC]
residual activity [1]: 100% | residual activity [2]: 100% | residual activity [3]: 88% | residual activity [4]: 100% | residual activity [5]: 100% | residual activity [6]: 100% | residual activity [7]: 100% | residual activity [8]: 100% | residual activity [9]: 100% | residual activity [10]: 100% | residual activity [11]: 100% | residual activity [12]: 100% | residual activity [13]: 100% | inhibition [14]: 6.6% | residual activity [15]: 100% | residual activity [16]: 100% | residual activity [17]: 100% | residual activity [18]: 100% | residual activity [19]: 100% | residual activity [20]: 100% | residual activity [21]: 100% | residual activity [22]: 90% | residual activity [23]: 100% | residual activity [24]: 100% | residual activity [25]: 100% | residual activity [26]: 96% | residual activity [27]: 100% | residual activity [28]: 94% | residual activity [29]: 100% | residual activity [30]: 100% | residual activity [31]: 100% | residual activity [32]: 100% | residual activity [33]: 100% | residual activity [34]: 100% | residual activity [35]: 100% | inhibition [36]: 91.8% | Ki [37]: 1700 nM | residual activity [38]: 89% | residual activity [39]: 100% | residual activity [40]: 100% | residual activity [41]: 96% | residual activity [42]: 100% | residual activity [43]: 100% | residual activity [44]: 70% | residual activity [45]: 100%

O=C(O)c1cc(-c2ccc(C3CCNCC3)cc2)c2ccc(-c3ccc(C(F)(F)F)cc3)cc2c1 [PPTN]
residual activity [1]: 100% | residual activity [2]: 100% | residual activity [3]: 100% | residual activity [4]: 100% | residual activity [5]: 100% | residual activity [6]: 100% | residual activity [7]: 100% | residual activity [8]: 90% | residual activity [9]: 100% | residual activity [10]: 100% | residual activity [11]: 100% | residual activity [12]: 100% | residual activity [13]: 100% | inhibition [14]: 7.95% | residual activity [15]: 100% | residual activity [16]: 100% | residual activity [17]: 100% | residual activity [18]: 100% | residual activity [19]: 90% | residual activity [20]: 100% | residual activity [21]: 100% | residual activity [22]: 100% | residual activity [23]: 100% | residual activity [24]: 100% | residual activity [25]: 100% | residual activity [26]: 80% | residual activity [27]: 100% | residual activity [28]: 96% | residual activity [29]: 86% | residual activity [30]: 100% | residual activity [31]: 100% | residual activity [32]: 100% | residual activity [33]: 100% | residual activity [34]: 100% | residual activity [35]: 97% | inhibition [36]: 84.9% | Ki [37]: 1120 nM | residual activity [38]: 100% | residual activity [39]: 100% | residual activity [40]: 100% | residual activity [41]: 100% | residual activity [42]: 100% | residual activity [43]: 100% | residual activity [44]: 78% | residual activity [45]: 100%
